# Measurements from US12108761B2, “Mesostigmata mite control agent” (MEIJI SEIKA PHARMA CO., LTD., priority 2017, dated 2024).
# Columns and labels:
# Format in all cases: in vivo
# [1] = system: red mites (Dermanyssus gallinae); assay: Test Example 4: controlling effect on red mites, Pasteur pipette treated with acetone solution; conditions: 24 hours after treatment, unfed adult red mites; for pest or weed control at 5000 ppm: Dermanyssus gallinae, read-out: Ratio of dead and affected mites; for Ratio of dead and affected mites: 5000 ppm
# From the text: The tip of a Pasteur pipette was sealed with Parafilm, and an acetone solution (liquid agent) of each of the samples shown in Table 5 below diluted to a predetermined concentration was poured into the pipette through an upper portion thereof. One minute later, the Parafilm at the tip was detached, and the liquid agent was discharged. After the pipette was air dried, absorbent cotton was inserted to an upper end of the pipette, and 20 unfed adult red mites (Dermanyssus gallinae) were released into the pipette. After the tip was sealed with Hemato-Seal, the pipette was stored in the dark in an incubator at a temperature of 25 to 28° C. and a humidity of 40 to 60%. […] Then, the ratio (%) of dead and affected mites was calculated according to the following formula. Acequinocyl and fluacrypyrim were used as control drugs. The ratio (%) of dead and affected mites={(the number of dead mites+the number of affected mites)/(the number of survived mites+the number of affected mites+the number of dead mites)}×100
# [2] = system: northern fowl mites (Ornithonyssus sylviarum); assay: Test Example 3: controlling effect on northern fowl mites, Pasteur pipette treated with acetone solution; conditions: fed adult northern fowl mites
# From the text: The tip of a Pasteur pipette was sealed with Parafilm, and an acetone solution (liquid agent) of each of the samples shown in Table 4 below diluted to a predetermined concentration was poured into the pipette through an upper portion thereof. One minute later, the Parafilm at the tip was detached, and the liquid agent was discharged. After the pipette was air dried, absorbent cotton was inserted to an upper end of the pipette, and 10 fed adult northern fowl mites (Ornithonyssus sylviarum) were released into the pipette. After the tip was sealed with Hemato-Seal, the pipette was stored in the dark in an incubator at 25° C. and at a humidity of 80%. After 2 and 24 hours had passed since the treatment, the mites were observed under a stereomicroscope to determine whether the mites were dead or alive and whether the mites were affected. Then, the ratio (%) of dead and affected mites was calculated. The ratio (%) of dead and affected mites={(the number of dead mites+the number of affected mites)/(the number of survived mites+the number of affected mites+the number of dead mites)}×100
# [3] = system: red mites (Dermanyssus gallinae); assay: Test Example 1: controlling effect on red mites, Pasteur pipette treated with acetone solution; conditions: unfed adult red mites
# From the text: The tip of a Pasteur pipette was sealed with Parafilm, and an acetone solution (liquid agent) of each of the samples shown in Table 2 below diluted to a predetermined concentration was poured into the pipette through an upper portion thereof. One minute later, the Parafilm at the tip was detached, and the liquid agent was discharged. After the pipette was air dried, absorbent cotton was inserted to an upper end of the pipette, and 20 unfed adult red mites (Dermanyssus gallinae) were released into the pipette. After the tip was sealed with Hemato-Seal, the pipette was stored in the dark in an incubator at a temperature of 27 to 28° C. and a humidity of 50 to 60%. After 24, 48, and 72 hours had passed since the treatment, the mites were observed under a stereomicroscope to determine whether the mites were dead or alive and whether the mites were affected. Then, the ratio (%) of dead and affected mites was calculated according to the following formula. Spinosad, trichlorfon, and permethrin were used as control drugs. The ratio (%) of dead and affected mites={(the number of dead mites+the number of affected mites)/(the number of survived mites+the number of affected mites+the number of dead mites)}×100
compound,measurement,setting,value
C[C@@]1(c2ccc(Oc3ccccc3)cc2)OC(=O)N(Nc2ccccc2)C1=O (racemic) [Famoxadone],pest or weed control at 5000 ppm,[1],81.7%
CCCCCCCCCCCCC1=C(OC(C)=O)C(=O)c2ccccc2C1=O [Acequinocyl],pest or weed control at 5000 ppm,[1],93.3%
Cc1c(Br)c2ccc(F)cc2n1S(=O)(=O)c1ncn(S(=O)(=O)N(C)C)n1 [Amisulbrom],Ratio of dead and affected mites,[1],92.9%
CO/C=C(/C(=O)OC)c1ccccc1Oc1cc(Oc2ccccc2C#N)ncn1 [Azoxystrobin],Ratio of dead and affected mites,[1],55.2%
O=C(Nc1ccccc1-c1ccc(Cl)cc1)c1cccnc1Cl [Boscalid],pest or weed control at 5000 ppm,[1],44.5%
CC1=C(C(=O)Nc2ccccc2)SCCO1 [Carboxin],pest or weed control at 5000 ppm,[1],42.6%
CC(=O)Oc1c(C)c(C)nc2c(F)cc(C(C)(C)C)cc12 [Compound A],Ratio of dead and affected mites,"[2]; 50 ppm, 2 hours later",13%
same,Ratio of dead and affected mites,"[2]; 50 ppm, 24 hours later",92%
same,Ratio of dead and affected mites,"[2]; 200 ppm, 2 hours later",53%
same,Ratio of dead and affected mites,"[2]; 200 ppm, 24 hours later",100%
same,Ratio of dead and affected mites,"[2]; 1000 ppm, 2 hours later",100%
same,Ratio of dead and affected mites,"[2]; 1000 ppm, 24 hours later",100%
same,Ratio of dead and affected mites,"[3]; 200 ppm, 24 hours later",7%
same,Ratio of dead and affected mites,"[3]; 200 ppm, 48 hours later",81%
same,Ratio of dead and affected mites,"[3]; 200 ppm, 72 hours later",98%
same,Ratio of dead and affected mites,"[3]; 1000 ppm, 24 hours later",100%
same,Ratio of dead and affected mites,"[3]; 1000 ppm, 48 hours later",100%
same,Ratio of dead and affected mites,"[3]; 1000 ppm, 72 hours later",100%
CC(=O)Oc1c(C)c(C)nc2c(C)cc(C(C)(C)C)cc12 [Compound B],Ratio of dead and affected mites,"[3]; 100 ppm, 24 hours later",100%
same,Ratio of dead and affected mites,"[3]; 100 ppm, 48 hours later",100%
CC(=O)Oc1c(C)c(C)nc2c(C)cc(Br)cc12 [Compound C],Ratio of dead and affected mites,"[3]; 100 ppm, 24 hours later",91%
same,Ratio of dead and affected mites,"[3]; 100 ppm, 48 hours later",95%
CC(=O)Oc1c(C)c(C)nc2c(C)cc(F)cc12 [Compound D],Ratio of dead and affected mites,"[3]; 100 ppm, 24 hours later",100%
same,Ratio of dead and affected mites,"[3]; 100 ppm, 48 hours later",100%
COC(=O)Oc1c(C)c(C)nc2ccc(F)cc12 [Compound F],Ratio of dead and affected mites,"[3]; 50 ppm, 24 hours later",55%
Cc1ccc(-c2c(Cl)nc(C#N)n2S(=O)(=O)N(C)C)cc1 [Cyazofamid],pest or weed control at 5000 ppm,[1],23.2%
CCC(Nc1ncnc(C)c1Cl)c1ccc(OC(F)F)cc1 (stereo not shown) [Diflumetorim],pest or weed control at 5000 ppm,[1],100%
Cc1nn(C)c(Oc2ccccc2)c1C=NOCc1ccc(C(=O)OC(C)(C)C)cc1 [Fenpyroximate],pest or weed control at 5000 ppm,[1],100%
C/C(=N/Nc1nc(C)cc(C)n1)c1ccccc1C [Ferimzone],pest or weed control at 5000 ppm,[1],53.5%
CO/C=C(/C(=O)OC)c1ccccc1COc1cc(C(F)(F)F)nc(OC(C)C)n1 [Fluacrypyrim],pest or weed control at 5000 ppm,[1],19.3%
O=[N+]([O-])c1cc(C(F)(F)F)c(Cl)c([N+](=O)[O-])c1Nc1ncc(C(F)(F)F)cc1Cl [Fluazinam],pest or weed control at 5000 ppm,[1],82.5%
CC1(C)C(C=C(Cl)c2ccc(Cl)cc2)C1C(=O)OC(C#N)c1ccc(F)c(Oc2ccccc2)c1 (stereo not shown) [Flumethrin],Ratio of dead and affected mites,"[2]; 5 ppm, 24 hours later",67%
same,Ratio of dead and affected mites,"[2]; 20 ppm, 24 hours later",83%
same,Ratio of dead and affected mites,"[2]; 50 ppm, 2 hours later",100%
same,Ratio of dead and affected mites,"[2]; 50 ppm, 24 hours later",100%
O=C(NCCc1ncc(C(F)(F)F)cc1Cl)c1ccccc1C(F)(F)F [Fluopyram],pest or weed control at 5000 ppm,[1],50.5%
CO/N=C(/C1=NOCCO1)c1ccccc1Oc1ncnc(Oc2ccccc2Cl)c1F [Fluoxastrobin],pest or weed control at 5000 ppm,[1],66.5%
CC(C)Oc1cccc(NC(=O)c2ccccc2C(F)(F)F)c1 [Flutolanil],pest or weed control at 5000 ppm,[1],39.5%
Cn1cc(C(=O)Nc2ccccc2-c2cc(F)c(F)c(F)c2)c(C(F)F)n1 [Fluxapyroxad],Ratio of dead and affected mites,[1],61.3%
Cc1nn(C)c(Cl)c1C(=O)Nc1cccc2c1C(C)OC2(C)C (stereo not shown) [Furametpyr],Ratio of dead and affected mites,[1],56.1%
Cc1cc(OC(C)C)ccc1C(=O)C(C)(C)NC(=O)c1sccc1C [Isofetamid],Ratio of dead and affected mites,[1],17.4%
CO/N=C(/C(=O)OC)c1ccccc1COc1ccccc1C [Kresoxim-Methyl],pest or weed control at 5000 ppm,[1],52.8%
Cc1ccccc1C(=O)Nc1cccc(OC(C)C)c1 [Mepronil],pest or weed control at 5000 ppm,[1],52.1%
CNC(=O)/C(=N/OC)c1ccccc1Oc1ccccc1 [Metominostrobin],pest or weed control at 5000 ppm,[1],50%
CNC(=O)/C(=N/OC)c1ccccc1CO/N=C(C)/C(=N/OC)C(/C)=N/OC [Orysastrobin],Ratio of dead and affected mites,[1],82.6%
Cc1nn(C)c(F)c1C(=O)Nc1ccccc1C(C)CC(C)C (stereo not shown) [Penflufen],Ratio of dead and affected mites,[1],20.5%
CC(C)CC(C)c1sccc1NC(=O)c1cn(C)nc1C(F)(F)F (stereo not shown) [Penthiopyrad],pest or weed control at 5000 ppm,[1],35%
CC1(C)C(C=C(Cl)Cl)C1C(=O)OCc1cccc(Oc2ccccc2)c1 (stereo not shown) [Permethrin],Ratio of dead and affected mites,"[3]; 100 ppm, 48 hours later",6%
CO/C=C(/C(=O)OC)c1ccccc1COc1cccc(C(F)(F)F)n1 [Picoxystrobin],Ratio of dead and affected mites,[1],80.5%
COC(=O)N(OC)c1ccccc1COc1ccn(-c2ccc(Cl)cc2)n1 [Pyraclostrobin],pest or weed control at 5000 ppm,[1],77.3%
COC(=O)NCc1cc(/C(C)=N/OCc2cccc(C)n2)ccc1Cl [Pyribencarb],pest or weed control at 5000 ppm,[1],31.1%
Cc1nc(C(F)(F)F)c(C(=O)Nc2c(Br)cc(OC(F)(F)F)cc2Br)s1 [Thifluzamide],pest or weed control at 5000 ppm,[1],63.2%
COP(=O)(OC)C(O)C(Cl)(Cl)Cl (stereo not shown) [Trichlorfon],Ratio of dead and affected mites,"[3]; 5000 ppm, 48 hours later",84%
CON=C(C(=O)OC)c1ccccc1CON=C(C)c1cccc(C(F)(F)F)c1 [Trifloxystrobin],pest or weed control at 5000 ppm,[1],75.7%
Spinosad,Ratio of dead and affected mites,"[2]; 50 ppm, 2 hours later",18%
same,Ratio of dead and affected mites,"[2]; 50 ppm, 24 hours later",80%
same,Ratio of dead and affected mites,"[2]; 200 ppm, 2 hours later",3%
same,Ratio of dead and affected mites,"[2]; 200 ppm, 24 hours later",94%
same,Ratio of dead and affected mites,"[3]; 200 ppm, 24 hours later",33%
same,Ratio of dead and affected mites,"[3]; 200 ppm, 48 hours later",69%
same,Ratio of dead and affected mites,"[3]; 200 ppm, 72 hours later",72%
same,Ratio of dead and affected mites,"[3]; 1000 ppm, 24 hours later",32%
same,Ratio of dead and affected mites,"[3]; 1000 ppm, 48 hours later",82%
same,Ratio of dead and affected mites,"[3]; 1000 ppm, 72 hours later",95%
